Data as given in ChEMBL document CHEMBL6127118, “Identification of Oral Bioavailable Coumarin Derivatives as Potential AR Antagonists Targeting Prostate Cancer” (J Med Chem, 2024).

Legend:
[1] = target: T1, Androgen receptor (Homo sapiens, UniProt P10275); test: Antagonist activity at DHT-induced Androgen receptor in human LNCaP cells transfected with ARR2PB-eGFP incubated for 3 days; assay type: cell-based
T1 sequence (P10275 whole entry): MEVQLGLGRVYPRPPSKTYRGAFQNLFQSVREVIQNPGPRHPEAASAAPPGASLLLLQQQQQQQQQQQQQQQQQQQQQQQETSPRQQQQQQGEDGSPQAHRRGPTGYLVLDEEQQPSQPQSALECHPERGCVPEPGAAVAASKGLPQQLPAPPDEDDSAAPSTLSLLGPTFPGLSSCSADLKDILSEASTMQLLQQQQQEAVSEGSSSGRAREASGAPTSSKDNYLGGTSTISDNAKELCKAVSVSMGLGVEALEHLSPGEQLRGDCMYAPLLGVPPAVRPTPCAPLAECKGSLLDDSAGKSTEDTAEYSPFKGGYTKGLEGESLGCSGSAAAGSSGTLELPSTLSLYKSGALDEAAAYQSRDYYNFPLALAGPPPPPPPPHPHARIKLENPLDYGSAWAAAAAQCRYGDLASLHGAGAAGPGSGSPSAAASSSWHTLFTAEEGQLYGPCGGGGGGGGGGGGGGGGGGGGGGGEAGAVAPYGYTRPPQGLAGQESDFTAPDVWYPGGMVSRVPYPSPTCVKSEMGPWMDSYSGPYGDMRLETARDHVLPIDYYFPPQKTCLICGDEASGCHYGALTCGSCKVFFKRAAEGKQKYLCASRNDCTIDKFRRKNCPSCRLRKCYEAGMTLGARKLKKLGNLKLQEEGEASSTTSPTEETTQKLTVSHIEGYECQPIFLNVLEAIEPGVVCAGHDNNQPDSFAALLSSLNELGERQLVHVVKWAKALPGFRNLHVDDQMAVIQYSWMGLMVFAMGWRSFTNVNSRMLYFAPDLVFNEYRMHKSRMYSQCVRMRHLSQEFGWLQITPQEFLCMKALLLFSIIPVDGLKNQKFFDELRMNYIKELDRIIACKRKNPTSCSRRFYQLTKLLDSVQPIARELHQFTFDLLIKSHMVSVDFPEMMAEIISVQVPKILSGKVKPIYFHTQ

[2] = Clearance in Sprague-Dawley rat at 1 mg/kg, iv; assay type: ADME, organism-based; conditions: in vivo
[3] = Antiproliferative activity against human Chang liver cells incubated for 72 hrs by MTT assay; assay type: toxicity, cell-based
[4] = Oral bioavailability in Sprague-Dawley rat at 5 mg/kg; assay type: ADME, organism-based; conditions: in vivo
[5] = Half life in Sprague-Dawley rat at 1 mg/kg, iv; assay type: ADME, organism-based; conditions: in vivo
[6] = Half life in Sprague-Dawley rat at 5 mg/kg, po; assay type: ADME, organism-based; conditions: in vivo
[7] = AUC (0 to t) in Sprague-Dawley rat at 5 mg/kg, po; assay type: ADME, organism-based; conditions: in vivo
[8] = Apparent volume of distribution in Sprague-Dawley rat at 1 mg/kg, iv; assay type: ADME, organism-based; conditions: in vivo, read-out: Vz
[9] = Apparent volume of distribution in Sprague-Dawley rat at 5 mg/kg, po; assay type: ADME, organism-based; conditions: in vivo
[10] = tested on: NIH3T3; test: Antiproliferative activity against mouse NIH3T3 cells incubated for 72 hrs by MTT assay; assay type: toxicity, cell-based; conditions: nih3t3, 72 h
[11] = AUC (0 to t) in Sprague-Dawley rat at 1 mg/kg, iv; assay type: ADME, organism-based; conditions: in vivo
[12] = Clearance in Sprague-Dawley rat at 5 mg/kg, po; assay type: ADME, organism-based; conditions: in vivo
[13] = Cmax in Sprague-Dawley rat at 5 mg/kg, po; assay type: ADME, organism-based; conditions: in vivo
[14] = tested on: GES1; test: Antiproliferative activity against human GES1 cells incubated for 72 hrs by MTT assay; assay type: toxicity, cell-based; conditions: ges1, 72 h, time 72 hrs
[15] = Cmax in Sprague-Dawley rat at 1 mg/kg, iv; assay type: ADME, organism-based; conditions: in vivo

O=c1cc(C(F)(F)F)c2ccc(OCc3ccc(Br)cc3)cc2o1
IC50 [1]: 590 nM

CN(Cc1ccc(Cl)cc1)c1ccc2c(C(F)(F)F)cc(=O)oc2c1
clearance [2]: 16.3 mL/min/kg | Activity [3]: Non-Toxic | bioavailability [4]: 19.3% | half-life [5]: 19.8 h | half-life [6]: 11.8 h | AUC(0-t) [7]: 724 ng·h/mL | Vd [8]: 27.8 L/kg | Vz [9]: 112.33 L/kg | Activity [10]: Non-Toxic | AUC(0-t) [11]: 750 ng·h/mL | CL/F [12]: 68 mL/min/kg | Cmax [13]: 139 ng/mL | Activity [14]: Non-Toxic | Cmax [15]: 809 ng/mL

CCN(CC)c1cc2c(C(F)(F)F)cc(=O)oc2cc1OCc1ccc(Br)cc1
IC50 [1]: > 10000 nM

CCN(Cc1ccc(Cl)cc1)c1ccc2c(C(F)(F)F)cc(=O)oc2c1
IC50 [1]: 78 nM

O=c1cc(C(F)(F)F)c2cc(N3CCCC3)c(OCc3ccc(Br)cc3)cc2o1
IC50 [1]: > 10000 nM

O=c1cc(C(F)(F)F)c2ccc(NCc3cc(F)ccc3F)cc2o1
IC50 [1]: 34 nM

CN(Cc1cc(F)ccc1F)c1ccc2c(C(F)(F)F)cc(=O)oc2c1
IC50 [1]: 170 nM

Cc1ccc(CNc2ccc3c(C(F)(F)F)cc(=O)oc3c2)cc1F
IC50 [1]: 73 nM

N#Cc1ccc(CNc2ccc3c(C(F)(F)F)cc(=O)oc3c2)cc1
IC50 [1]: 890 nM

CN(Cc1ccc(Br)cc1)c1ccc2c(C(F)(F)F)cc(=O)oc2c1
IC50 [1]: 97 nM

CCN(Cc1ccc(Br)cc1)c1ccc2c(C(F)(F)F)cc(=O)oc2c1
IC50 [1]: 100 nM

O=c1cc(C(F)(F)F)c2ccc(NCc3ccc(OC(F)F)cc3)cc2o1
IC50 [1]: 68 nM

O=c1cc(C(F)(F)F)c2ccc(NCc3ccc(CO)cc3)cc2o1
IC50 [1]: 92 nM

O=c1cc(C(F)(F)F)c2ccc(NCc3cccc(Br)c3)cc2o1
IC50 [1]: 110 nM
